tested on: Escherichia coli (α); assay: Screening of secretion efficiency, alkaline phosphatase expressing strain; assay type: cell-based; settings: surfactant 1 wt %; 37° C., 1 hour; ELISA, anti-His-tag antibody
Text: An alkaline phosphatase (phoA) gene of an Escherichia coli strain W3110 was amplified by the PCR method using primers 1 and 2 (Table 4). After being treated with restriction enzymes NdeI and BamHI, a PCR fragment was bound with an NdeI restriction enzyme site and with a BamHI restriction enzyme site of a pET-22b plasmid (product of Novagen). Then, the plasmid was transformed into an AG1 (DE3) Escherichia coli strain formed by transforming an Escherichia coli strain AG1 (product of TOYOBO Co., LTD.) with use of a λDE3 Lysogenization Kit (product of Novagen). In this manner, an alkaline phosphatase expressing strain (a) was formed.
A pdxA gene of an Escherichia coli strain W3110 was amplified by the PCR method using primers 5 and 6 (Table 4). After being treated with restriction enzymes NdeI and BamHI, a PCR fragment was bound to an NdeI restriction enzyme site and a BamHI restriction enzyme site of a pET-22b plasmid (product of Novagen). Then, the plasmid was transformed into an AG1 (DE3) Escherichia coli strain to form a PdxA expressing strain (γ).
In this manner, culture solutions were prepared.
(2) The strains were collected using a centrifuge (4,000 G, 4° C., 15 minutes). Each of the collected Escherichia coli strains was resuspended in 1 mL of a TB culture solution (product of Difco) and chloramphenicol (30 mg/L) and IPTG (100 μM) were added thereto. Shake culture at 37° C. for 3 hours induced expression of phoA, torA, and pdxA.
(3) Subsequently, harvesting using a centrifuge was carried out again (4,000 G, 4° C., 15 minutes). Each of the collected Escherichia coli strains was resuspended in 2.5 mL of a Tris-NaCl buffer solution (50 mM Tris (pH 7.5), 100 mM NaCl). The resulting solution was divided into 25-μL portions at a time to be mixed with 25 μL of a Tris-NaCl buffer solution.
(4) Then, the solution was allowed to stand at 37° C. for 1 hour. The supernatant solution was collected and diluted in a Tris-NaCl buffer solution to a proper concentration. Here, the quantification of the recombinant protein in the resulting solution was carried out by ELISA assay with use of an anti-His-tag antibody. The sample prior to the centrifugation in the process (3) was treated with ultrasonic waves (200 W, 10 minutes) and the quantification of the recombinant protein therein was similarly carried out by ELISA assay with use of an anti-His-tag antibody. The ratio of lysed bacteria was obtained with use of Escherichia coli (γ), and the secretion efficiencies of the recombinant proteins of Escherichia coli (α) and (β) were calculated by using the following formula. […] Secretion efficiency (%)=100×{(X/Y)−Z}.
In the formula, “X” represents the amount of the recombinant protein in the culture solution after removal of bacterial cells by centrifugation in the case of using Escherichia coli (α) or (β).
“Y” represents the amount of the whole recombinant protein in the culture solution in the case of using Escherichia coli (α) or (β).
“Z” represents the ratio of lysed bacteria obtained with use of Escherichia coli (γ), which is determined by the following formula: Z=Z1/Z2.
In the formula, “Z1” represents the amount of the recombinant protein in the culture solution which remains after removal of bacterial cells by centrifugation in the case of using Escherichia coli (γ).
“Z2” represents the amount of the whole recombinant protein in the culture solution in the case of using Escherichia coli (γ).
Escherichia coli (α) and (β) were each cultured in the same manner as in the above case except that polyoxyethylene (3 mol) tridecyl ether sodium acetate as the surfactant (A) was added right after the resuspension of the Escherichia coli in the buffer solution in the process (3) of A-0, in an amount of 1% by weight on the basis of the weight of the suspension of the bacterium. The secretion efficiency was calculated according to the above-mentioned definition.

Compound	Secretion efficiency (%) Escherichia coli (α) [%]
CCCCCCCCCC[N+](C)(C)CCCCCCCCCC.[Cl-] [A-48, Didecyl dimethyl ammonium chloride]	2.7
Polyethylene glycol diisostearate [A-38]	5.1
Didecyl dimethyl ammonium adipate [A-42]	4.3
Isostearyl alcohol polyoxyethylene (5 mol) adduct sodium ether carboxylate [A-52]	2.2
Polyoxyethylene glyceryl triisostearate [A-32]	5.9
Ester thiodipropionate of polyoxyethylene (3 mol) alkyl (C12, C15) ether [A-25]	11.8
Behenylamide propyldimethylamine [A-47]	2.8
Polyoxyethylene (20 mol) sorbitan monolaurate [A-56]	1.6
Polyoxyethylene(Mw = 1000)dioleate [A-66]	0.3
Sorbitan monooleate [A-43]	3.5
Polyoxyethylene (20 mol) sorbitan monooleate [A-37]	5.2
Sodium dodecyl diphenyl ether disulfonate [A-8]	79.1
polyoxyethylene-p-isooctyl phenol [A-16]	36.7
EO 10 mol adduct of cured castor oil [A-55]	1.7
CCCCCCCCCCCCCCCCCC[N+](C)(C)CCCCCCCCCCCCCCCCCC.[Cl-] [A-50, Distearyl dimethyl ammonium chloride]	2.3
CCCCCCCCCCCCCCCCCC[N+](C)(C)C.[Cl-] [A-15, Stearyl trimethyl ammonium chloride]	37.3
1,2-dodecandiol monooxyethylene adduct [A-4]	90.7
Polyoxyethylene isostearyl ether [A-34]	5.3
Polyoxyethylene (Mw = 200) oleate monoester [A-35]	5.3
Sorbitan trioleate [A-49]	2.4
Polyethylene glycol monoisostearate [A-40]	4.9
Stearylamine polyoxyethylene (15 mol) adduct [A-26]	11.0
Palm oil fatty acid sorbitan [A-54]	1.7
Palm oil fatty acid diethanol amide [A-2]	97.5
Polyethylene glycol diisostearate [A-22]	26.2

Compound	Secretion efficiency (%) Escherichia coli (α) [%]
Polyoxyethylene (3 mol) lauryl ether acetate [A-24]	16.1
Lauryl diphenyl ether sodium disulfonate [A-74]	0.0
Polyoxyethylene (Mw = 190) stearic acid diester [A-33]	5.5
Polyoxyethylene (Mw = 400) oleate monoester [A-58]	1.3
Polyoxyethylene(EO 20 mol)sorbitan monostearate [A-72]	0.0
Polyoxyethylene (Mw = 300) oleate diester [A-57]	1.5
EO 24 mol adduct trilaurate of trimethylolpropane [A-64]	0.5
C[C@H](CCC(=O)[O-])[C@H]1CC[C@H]2[C@@H]3[C@H](O)C[C@@H]4C[C@H](O)CC[C@]4(C)[C@H]3C[C@H](O)[C@]12C.[Na+] [A-82, sodium cholate]	0.0
Oleic acid 4.5 mol ester of sorbitol EO 40 mol adduct [A-63]	0.7
2-alkyl-N-carboxymethyl-N-hydroxyethyl imidazolinium betaine [A-23]	20.2
CCCCCCCCCCCCOS(=O)(=O)[O-].[Na+] [A-69, Sodium lauryl sulfate]	0.0
EO 25 mol adduct of cured castor oil [A-44]	3.0
Triethanol amine alkyl (C12, C13) sulfate [A-18]	30.7
Sodium polyoxyethylene (2.5 mol) laurylether sulfate [A-11]	53.2
EO 10 mol adduct of oleyl alcohol [A-59]	1.1
EO 3 mol adduct of higher alcohol (C11 to C 15) [A-10]	56.9
EO 6 mol adduct of decyl alcohol [A-12]	53.1
PO 20 mol and EO 9 mol adduct of ethylhexanol [A-51]	2.3
Lanolin fatty acid aminopropyl ethylene dimethyl ammonium ethyl sulfate [A-28]	9.2
Polyoxyethylene(Mw = 600)oleate monoester [A-67]	0.3
CCCCCCCCCC[N+](C)(C)CCCCCCCCCC.[Cl-] [A-20, Didecyl dimethylammonium chloride]	28.7
Isostearylalcohol polyoxyethylene (5 mol) sodium phosphate [A-31]	6.2
Polyoxyethylene(10 mol)cetyl ether [A-65]	0.5
Polyethylene glycol monoisostearate [A-29]	7.6
EO 20 mol adduct of sorbitan trioleate [A-41]	4.6

Source: US9328369B2, “Process for production of useful substance, and surfactant for use in the process” (priority 2009, dated 2016)
